Literature values, collected in patent publication US20220096371A1, “BIODEGRADABLE MICRONEEDLE SYSTEM WITH SUSTAINED RELEASE” (University of Connecticut, priority 2020, published 2022).

[1] = 81 mg ASA oral pill, by HPLC, used as target for MN system

ACU (area under the curve) [1]: ~865 ng/ml.hr
average daily plasma concentration [1]: ~100 ng/mL
bioavailability (oral use): ~20%
Compound: CC(=O)Oc1ccccc1C(=O)O [ASA, acetylsalicylic acid]
